Measurements taken from ChEMBL document CHEMBL5321275, “Discovery, Optimization, and Evaluation of Novel N-(Benzimidazol-5-yl)-1,3,4-thiadiazol-2-amine Analogues as Potent STAT3 Inhibitors for Cancer Treatment” (J Med Chem, 2023).
The source made the active and inactive calls. The calls are words filed in the database; no cut-off is given here.

Assays:
DU-145 [1] = assay: Induction of apoptosis in human DU-145 cells assessed as early apoptotic cells at 1 uM measured after 48 hrs by annexin V-FITC and PI staining based flow cytometry analysis (reference value: 2.5%); format: functional
DU-145 [2] = assay: Antiproliferative activity against human DU-145 cells assessed as inhibition of cell growth measured after 96 hrs by MTT assay; format: functional, cell-based; details: DU-145, 96 h
[3] = Metabolic stability in mouse liver microsomes assessed as half life in presence of NADPH/UDPGA; format: ADME, Microsome
[4] = target: T1, Signal transducer and activator of transcription 3 (Homo sapiens, UniProt P40763); assay: Inhibition of STAT3 phosphorylation at Tyr705 residue in human MDA-MB-231 cells incubated for 24 hrs by Western blot analysis; format: cell-based; details: dose <= 10.0 µM
T1 sequence (P40763 whole entry): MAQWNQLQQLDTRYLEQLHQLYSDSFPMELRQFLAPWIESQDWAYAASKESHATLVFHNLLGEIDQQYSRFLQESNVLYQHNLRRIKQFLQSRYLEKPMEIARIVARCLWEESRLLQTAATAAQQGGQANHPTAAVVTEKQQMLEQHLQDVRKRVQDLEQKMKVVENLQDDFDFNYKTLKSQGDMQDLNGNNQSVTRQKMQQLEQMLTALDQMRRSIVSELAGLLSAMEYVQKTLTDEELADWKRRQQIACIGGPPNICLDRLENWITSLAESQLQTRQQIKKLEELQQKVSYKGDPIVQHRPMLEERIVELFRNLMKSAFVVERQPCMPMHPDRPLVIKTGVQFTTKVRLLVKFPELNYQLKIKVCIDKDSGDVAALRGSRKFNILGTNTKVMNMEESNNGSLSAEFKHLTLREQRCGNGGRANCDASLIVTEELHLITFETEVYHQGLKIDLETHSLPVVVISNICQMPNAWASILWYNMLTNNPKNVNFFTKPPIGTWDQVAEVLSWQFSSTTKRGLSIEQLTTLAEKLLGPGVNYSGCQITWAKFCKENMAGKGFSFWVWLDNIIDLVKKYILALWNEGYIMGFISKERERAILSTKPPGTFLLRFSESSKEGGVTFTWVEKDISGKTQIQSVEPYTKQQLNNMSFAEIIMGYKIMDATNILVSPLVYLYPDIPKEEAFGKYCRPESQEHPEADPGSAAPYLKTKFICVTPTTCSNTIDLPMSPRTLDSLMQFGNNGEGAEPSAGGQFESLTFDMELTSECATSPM

[5] = target: T2, Signal transducer and activator of transcription 5A (Homo sapiens) (UniProt P42229); assay: Inhibition of STAT5 phosphorylation in human DU-145 cells at 10 uM measured after 24 hrs by Western blot analysis; format: cell-based
T2 sequence (whole entry): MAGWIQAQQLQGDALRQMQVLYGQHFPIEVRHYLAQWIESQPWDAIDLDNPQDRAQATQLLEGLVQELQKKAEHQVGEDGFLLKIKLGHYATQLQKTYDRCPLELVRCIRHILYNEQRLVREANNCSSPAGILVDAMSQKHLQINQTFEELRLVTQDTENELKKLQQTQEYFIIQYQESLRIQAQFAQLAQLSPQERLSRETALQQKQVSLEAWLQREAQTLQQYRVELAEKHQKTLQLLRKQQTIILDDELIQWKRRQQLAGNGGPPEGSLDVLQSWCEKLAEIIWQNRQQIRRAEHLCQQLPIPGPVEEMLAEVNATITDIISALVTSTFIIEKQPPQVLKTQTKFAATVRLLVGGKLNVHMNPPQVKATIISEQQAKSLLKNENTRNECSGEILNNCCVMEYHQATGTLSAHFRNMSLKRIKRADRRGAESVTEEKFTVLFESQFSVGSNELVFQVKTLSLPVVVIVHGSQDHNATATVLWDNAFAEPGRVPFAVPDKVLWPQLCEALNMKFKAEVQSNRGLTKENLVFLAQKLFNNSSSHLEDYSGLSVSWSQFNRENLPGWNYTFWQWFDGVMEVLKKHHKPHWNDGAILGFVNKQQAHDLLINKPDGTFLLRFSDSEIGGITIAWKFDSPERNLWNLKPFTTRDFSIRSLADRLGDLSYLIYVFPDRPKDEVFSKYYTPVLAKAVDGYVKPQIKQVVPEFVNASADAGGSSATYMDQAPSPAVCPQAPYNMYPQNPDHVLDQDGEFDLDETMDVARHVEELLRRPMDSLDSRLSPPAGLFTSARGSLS

[6] = target: T1, Signal transducer and activator of transcription 3; assay: Inhibition of STAT3 in human DU-145 cells assessed as downregulation of c-myc expression at upto 10 uM measured after 24 hrs; format: cell-based
[7] = target: T1, Signal transducer and activator of transcription 3; assay: Inhibition of STAT3 in human DU-145 cells assessed as downregulation of Bcl-2 expression at upto 10 uM measured after 24 hrs; format: cell-based
DU-145 [8] = assay: Induction of apoptosis in human DU-145 cells assessed as early apoptotic cells at 10 uM measured after 48 hrs by annexin V-FITC and PI staining based flow cytometry analysis (reference value: 2.5%); format: functional
DU-145 [9] = assay: Induction of apoptosis in human DU-145 cells assessed as late apoptotic cells at 1 uM measured after 48 hrs by annexin V-FITC and PI staining based flow cytometry analysis (reference value: 2.0%); format: functional
DU-145 [10] = assay: Induction of apoptosis in human DU-145 cells assessed as late apoptotic cells at 5 uM measured after 48 hrs by annexin V-FITC and PI staining based flow cytometry analysis (reference value: 2.0%); format: functional
DU-145 [11] = assay: Induction of apoptosis in human DU-145 cells assessed as late apoptotic cells at 10 uM measured after 48 hrs by annexin V-FITC and PI staining based flow cytometry analysis (reference value: 2.0%); format: functional
DU-145 [12] = assay: Induction of apoptosis in human DU-145 cells measured after 48 hrs by annexin V-FITC and PI staining based flow cytometry analysis; format: functional, cell-based; details: dose <= 10.0 µM
DU-145 [13] = assay: Antitumor activity against human DU-145 cells xenografted in Balb/c nude mouse model assessed as tumor growth inhibition at 50 mg/kg, ip administered once daily for 16 days by vernier caliper method relative to control; format: functional; details: DU-145, 384 h, time 16 day, read-out: TGI
[14] = Toxicity in Balb/c mouse assessed as drug tolerance at 50 mg/kg, ip administered once daily for 16 days; format: organism-based; details: in vivo, 384 h, time 16 day
[15] = Toxicity in Balb/c mouse assessed as effect on body weight loss at 50 mg/kg, ip administered once daily for 16 days; format: organism-based; details: in vivo, 384 h, time 16 day
[16] = Toxicity in Balb/c mouse assessed as serious adverse effect at 50 mg/kg, ip administered once daily for 16 days; format: organism-based; details: in vivo, 384 h, time 16 day
[17] = Toxicity in Balb/c mouse assessed as effect on kidney at 50 mg/kg by hematoxylin and eosin staining based histopathological analysis; format: organism-based; details: in vivo
[18] = Toxicity in Balb/c mouse assessed as effect on spleen at 50 mg/kg by hematoxylin and eosin staining based histopathological analysis; format: organism-based; details: in vivo
[19] = Toxicity in Balb/c mouse assessed as effect on liver at 50 mg/kg by hematoxylin and eosin staining based histopathological analysis; format: organism-based; details: in vivo
DU-145 [20] = assay: Antitumor activity against human DU-145 cells xenografted in Balb/c nude mouse model assessed as reduction in phosphorylated STAT3 at Y705 residue by immunoblotting analysis; format: functional, cell-based
[21] = MRT (0 to t) in ICR mouse at 50 mg/kg, po measured upto 96 hrs by HPLC-MS/MS analysis; format: ADME, organism-based; details: in vivo
[22] = MRT (0 to infinity) in ICR mouse at 50 mg/kg, po measured upto 96 hrs by HPLC-MS/MS analysis; format: ADME, organism-based; details: in vivo
[23] = Volume of distribution at steady state in ICR mouse at 50 mg/kg, po measured upto 96 hrs by HPLC-MS/MS analysis; format: ADME, organism-based; details: in vivo
[24] = AUC (0 to infinity) in ICR mouse at 5 mg/kg, iv measured upto 96 hrs by HPLC-MS/MS analysis; format: ADME, organism-based; parameters: dose 5 mg/kg, time < 96 hrs, route iv; details: in vivo
[25] = MRT (0 to infinity) in ICR mouse at 5 mg/kg, iv measured upto 96 hrs by HPLC-MS/MS analysis; format: ADME, organism-based; details: in vivo
[26] = Tmax in ICR mouse at 5 mg/kg, iv measured upto 96 hrs by HPLC-MS/MS analysis; format: ADME, organism-based; details: in vivo
[27] = Cmax in ICR mouse at 5 mg/kg, iv measured upto 96 hrs by HPLC-MS/MS analysis; format: ADME, organism-based; parameters: dose 5 mg/kg, time < 96 hrs, route iv; details: in vivo
[28] = Volume of distribution at steady state in ICR mouse at 5 mg/kg, iv measured upto 96 hrs by HPLC-MS/MS analysis; format: ADME, organism-based; details: in vivo, read-out: Vdss
[29] = Clearance in ICR mouse at 5 mg/kg, iv measured upto 96 hrs by HPLC-MS/MS analysis; format: ADME, organism-based; details: in vivo
[30] = Oral bioavailability in ICR mouse at 50 mg/kg measured upto 96 hrs by HPLC-MS/MS analysis; format: ADME, organism-based; details: in vivo

IC50 (DU-145 [2]): 2.97 µM
half-life [3]: 6.28 h
inhibition [4]: Dose-Dependent Effect
inhibition [5]: inactive
inhibition [6]: Active
inhibition [7]: Active
MRT last at 96 h [21]: 17.1 h
MRT inf [22]: 17.3 h
Vdss [23]: 40.17172 L/kg
AUC(0-inf) [24]: 3450 ng·h/mL
MRT inf [25]: 15.3 h
Tmax [26]: 3 min
Cmax [27]: 667 ng/mL
Vd [28]: 19 L/kg
clearance [29]: 24.2 mL/min/kg
bioavailability [30]: 52%
SMILES: CN1CCN(c2cc3c(cc2Nc2nnc(-c4ccc(C(F)(F)F)cc4)s2)nc(-c2ccc(F)cc2)n3C2CC2)CC1
Activity (DU-145 [1]): 2.1%
Activity (DU-145 [8]): 34%
Activity (DU-145 [9]): 2.4%
Activity (DU-145 [10]): 13.9%
Activity (DU-145 [11]): 45.6%
Activity (DU-145 [12]): Dose-Dependent Effect
inhibition in vivo at 50 mg/kg (DU-145 [13]): 65.3%
Activity [14]: Non-Toxic
Activity [15]: Non-Toxic
Activity [16]: Non-Toxic
Activity [17]: Non-Toxic
Activity [18]: Non-Toxic
Activity [19]: Non-Toxic
Activity (DU-145 [20]): Active
